Measurements: ChEMBL document CHEMBL3885881, “DrugMatrix”

Species: Rattus norvegicus
Test: DrugMatrix - Regimen: Daily Repeat
Type: toxicity, organism-based, Sprague-Dawley
Parameters: regimen Daily Repeat, gender Male, age 6-8 weeks
Details: in vivo, po, route oral GAVAGE, vehicle 100 % WATER; for BASOPHIL / EOSINOPHIL / ERYTHROCYTE COUNT / HEMATOCRIT / HEMOGLOBIN / LEUKOCYTE COUNT / LYMPHOCYTE / MEAN CORPUSCULAR HEMOGLOBIN / MEAN CORPUSCULAR HEMOGLOBIN CONCENTRATION / MEAN CORPUSCULAR VOLUME / MONOCYTE / NEUTROPHIL / PLATELET COUNT: tissue Blood; for ALANINE AMINOTRANSFERASE / ALBUMIN / ALKALINE PHOSPHATASE / ASPARTATE AMINOTRANSFERASE / BLOOD UREA NITROGEN / CHLORIDE / CHOLESTEROL / CREATINE PHOSPHOKINASE / CREATININE / GLUCOSE / PHOSPHORUS / POTASSIUM / SODIUM / TOTAL BILIRUBIN / TOTAL PROTEIN: tissue Plasma
[1] = 0 mg/kg, 72 h, dose level Control, time 3 day
[2] = 0 mg/kg, 120 h, dose level Control, time 5 day
[3] = 8 mg/kg, 72 h, dose level Low, time 3 day
[4] = 8 mg/kg, 120 h, dose level Low, time 5 day
[5] = 29 mg/kg, 72 h, dose level High, time 3 day
[6] = 29 mg/kg, 120 h, dose level High, time 5 day

CCN[C@@H](C)Cc1cccc(C(F)(F)F)c1 [DEXFENFLURAMINE]
BASOPHIL [1]: 0% | EOSINOPHIL [1]: 0.5% | ERYTHROCYTE COUNT [1]: 5.8 x10E6/uL | HEMATOCRIT [1]: 35.07% | HEMOGLOBIN [1]: 14.12 G/DL | LEUKOCYTE COUNT [1]: 13.7 x10E3/uL | LYMPHOCYTE [1]: 82.33% | MEAN CORPUSCULAR HEMOGLOBIN [1]: 24.38 pg | MEAN CORPUSCULAR HEMOGLOBIN CONCENTRATION [1]: 40.28 G/DL | MEAN CORPUSCULAR VOLUME [1]: 60.52 fL | MONOCYTE [1]: 2.67% | NEUTROPHIL [1]: 14.5% | PLATELET COUNT [1]: 911.5 x10E3/uL | ALANINE AMINOTRANSFERASE [1]: 36.83 u/L | ALBUMIN [1]: 3.75 G/DL | ALKALINE PHOSPHATASE [1]: 399.83 u/L | ASPARTATE AMINOTRANSFERASE [1]: 66 u/L | BLOOD UREA NITROGEN [1]: 14.67 mg/dL | CHLORIDE [1]: 101.67 MEQ/L | CHOLESTEROL [1]: 66.33 mg/dL | CREATINE PHOSPHOKINASE [1]: 139.5 u/L | CREATININE [1]: 0.92 mg/dL | GLUCOSE [1]: 175 mg/dL | PHOSPHORUS [1]: 11.42 mg/dL | POTASSIUM [1]: 7.03 MEQ/L | SODIUM [1]: 148.5 MEQ/L | TOTAL BILIRUBIN [1]: 1.13 mg/dL | TOTAL PROTEIN [1]: 6.87 G/DL | BASOPHIL [2]: 0% | EOSINOPHIL [2]: 0.2% | ERYTHROCYTE COUNT [2]: 6.02 x10E6/uL | HEMATOCRIT [2]: 36.48% | HEMOGLOBIN [2]: 14.38 G/DL | LEUKOCYTE COUNT [2]: 12.34 x10E3/uL | LYMPHOCYTE [2]: 83% | MEAN CORPUSCULAR HEMOGLOBIN [2]: 23.92 pg | MEAN CORPUSCULAR HEMOGLOBIN CONCENTRATION [2]: 39.44 G/DL | MEAN CORPUSCULAR VOLUME [2]: 60.66 fL | MONOCYTE [2]: 3% | NEUTROPHIL [2]: 13.8% | PLATELET COUNT [2]: 1190.6 x10E3/uL | ALANINE AMINOTRANSFERASE [2]: 43 u/L | ALBUMIN [2]: 3.73 G/DL | ALKALINE PHOSPHATASE [2]: 393 u/L | ASPARTATE AMINOTRANSFERASE [2]: 62.33 u/L | BLOOD UREA NITROGEN [2]: 16.33 mg/dL | CHLORIDE [2]: 101.67 MEQ/L | CHOLESTEROL [2]: 65.5 mg/dL | CREATINE PHOSPHOKINASE [2]: 130.67 u/L | CREATININE [2]: 0.58 mg/dL | GLUCOSE [2]: 180.67 mg/dL | PHOSPHORUS [2]: 11.28 mg/dL | POTASSIUM [2]: 7.05 MEQ/L | SODIUM [2]: 148.17 MEQ/L | TOTAL BILIRUBIN [2]: 0.72 mg/dL | TOTAL PROTEIN [2]: 6.83 G/DL | BASOPHIL [3]: 0% | EOSINOPHIL [3]: 0% | ERYTHROCYTE COUNT [3]: 5.97 x10E6/uL | HEMATOCRIT [3]: 35.8% | HEMOGLOBIN [3]: 14.33 G/DL | LEUKOCYTE COUNT [3]: 8.6 x10E3/uL | LYMPHOCYTE [3]: 86.33% | MEAN CORPUSCULAR HEMOGLOBIN [3]: 24.03 pg | MEAN CORPUSCULAR HEMOGLOBIN CONCENTRATION [3]: 40.07 G/DL | MEAN CORPUSCULAR VOLUME [3]: 60 fL | MONOCYTE [3]: 3.67% | NEUTROPHIL [3]: 10% | PLATELET COUNT [3]: 1151 x10E3/uL | ALANINE AMINOTRANSFERASE [3]: 34.67 u/L | ALBUMIN [3]: 3.8 G/DL | ALKALINE PHOSPHATASE [3]: 406.67 u/L | ASPARTATE AMINOTRANSFERASE [3]: 62.67 u/L | BLOOD UREA NITROGEN [3]: 16 mg/dL | CHLORIDE [3]: 100.33 MEQ/L | CHOLESTEROL [3]: 70 mg/dL | CREATINE PHOSPHOKINASE [3]: 167.33 u/L | CREATININE [3]: 0.77 mg/dL | GLUCOSE [3]: 174 mg/dL | PHOSPHORUS [3]: 11.97 mg/dL | POTASSIUM [3]: 6.93 MEQ/L | SODIUM [3]: 148.67 MEQ/L | TOTAL BILIRUBIN [3]: 0.67 mg/dL | TOTAL PROTEIN [3]: 6.7 G/DL | BASOPHIL [4]: 0% | EOSINOPHIL [4]: 0% | ERYTHROCYTE COUNT [4]: 6.17 x10E6/uL | HEMATOCRIT [4]: 36.97% | HEMOGLOBIN [4]: 14.47 G/DL | LEUKOCYTE COUNT [4]: 12.77 x10E3/uL | LYMPHOCYTE [4]: 91.67% | MEAN CORPUSCULAR HEMOGLOBIN [4]: 23.5 pg | MEAN CORPUSCULAR HEMOGLOBIN CONCENTRATION [4]: 39.13 G/DL | MEAN CORPUSCULAR VOLUME [4]: 60 fL | MONOCYTE [4]: 1.67% | NEUTROPHIL [4]: 6.67% | PLATELET COUNT [4]: 1202.33 x10E3/uL | ALANINE AMINOTRANSFERASE [4]: 37 u/L | ALBUMIN [4]: 3.83 G/DL | ALKALINE PHOSPHATASE [4]: 391.67 u/L | ASPARTATE AMINOTRANSFERASE [4]: 62.67 u/L | BLOOD UREA NITROGEN [4]: 14 mg/dL | CHLORIDE [4]: 102.67 MEQ/L | CHOLESTEROL [4]: 62.67 mg/dL | CREATINE PHOSPHOKINASE [4]: 107 u/L | CREATININE [4]: 0.6 mg/dL | GLUCOSE [4]: 196.67 mg/dL | PHOSPHORUS [4]: 12.6 mg/dL | POTASSIUM [4]: 7.37 MEQ/L | SODIUM [4]: 148.67 MEQ/L | TOTAL BILIRUBIN [4]: 0.53 mg/dL | TOTAL PROTEIN [4]: 7 G/DL | BASOPHIL [5]: 0% | EOSINOPHIL [5]: 0.33% | ERYTHROCYTE COUNT [5]: 6.47 x10E6/uL | HEMATOCRIT [5]: 37.87% | HEMOGLOBIN [5]: 15.5 G/DL | LEUKOCYTE COUNT [5]: 12.63 x10E3/uL | LYMPHOCYTE [5]: 88% | MEAN CORPUSCULAR HEMOGLOBIN [5]: 24.03 pg | MEAN CORPUSCULAR HEMOGLOBIN CONCENTRATION [5]: 41 G/DL | MEAN CORPUSCULAR VOLUME [5]: 58.6 fL | MONOCYTE [5]: 2% | NEUTROPHIL [5]: 9.67% | PLATELET COUNT [5]: 1385.67 x10E3/uL | ALANINE AMINOTRANSFERASE [5]: 27 u/L | ALBUMIN [5]: 3.7 G/DL | ALKALINE PHOSPHATASE [5]: 285.67 u/L | ASPARTATE AMINOTRANSFERASE [5]: 55.33 u/L | BLOOD UREA NITROGEN [5]: 13 mg/dL | CHLORIDE [5]: 102 MEQ/L | CHOLESTEROL [5]: 63.67 mg/dL | CREATINE PHOSPHOKINASE [5]: 119.67 u/L | CREATININE [5]: 0.7 mg/dL | GLUCOSE [5]: 160 mg/dL | PHOSPHORUS [5]: 10.57 mg/dL | POTASSIUM [5]: 6.47 MEQ/L | SODIUM [5]: 151 MEQ/L | TOTAL BILIRUBIN [5]: 0.47 mg/dL | TOTAL PROTEIN [5]: 6.57 G/DL | BASOPHIL [6]: 0% | EOSINOPHIL [6]: 0% | ERYTHROCYTE COUNT [6]: 6.71 x10E6/uL | HEMATOCRIT [6]: 38.87% | HEMOGLOBIN [6]: 15.1 G/DL | LEUKOCYTE COUNT [6]: 11.3 x10E3/uL | LYMPHOCYTE [6]: 92.67% | MEAN CORPUSCULAR HEMOGLOBIN [6]: 22.53 pg | MEAN CORPUSCULAR HEMOGLOBIN CONCENTRATION [6]: 38.9 G/DL | MEAN CORPUSCULAR VOLUME [6]: 58 fL | MONOCYTE [6]: 1.67% | NEUTROPHIL [6]: 5.67% | PLATELET COUNT [6]: 1314.33 x10E3/uL | ALANINE AMINOTRANSFERASE [6]: 33.67 u/L | ALBUMIN [6]: 3.67 G/DL | ALKALINE PHOSPHATASE [6]: 333.67 u/L | ASPARTATE AMINOTRANSFERASE [6]: 57.67 u/L | BLOOD UREA NITROGEN [6]: 15 mg/dL | CHLORIDE [6]: 101 MEQ/L | CHOLESTEROL [6]: 66.67 mg/dL | CREATINE PHOSPHOKINASE [6]: 104.67 u/L | CREATININE [6]: 0.6 mg/dL | GLUCOSE [6]: 197.33 mg/dL | PHOSPHORUS [6]: 12.47 mg/dL | POTASSIUM [6]: 6.47 MEQ/L | SODIUM [6]: 149.67 MEQ/L | TOTAL BILIRUBIN [6]: 0.33 mg/dL | TOTAL PROTEIN [6]: 6.57 G/DL
